Publication PMC3870587 (Biochemistry, 2013)
Values joined by “and” are separate entries in the source; they are usually repeats but may differ in a detail not shown here. Identical values can stand only once.

What was measured:
human MTAP (apo) [1] = target: T1, human MTAP (apo) (Homo sapiens, UniProt Q13126); assay: Isothermal titration calorimetry of ligands binding to apo MTAP in Hepes buffer; settings: for ΔΔG relative to MTA; contribution of the 9-deazaadenine (protonated N7): binding to apo MTAP, ΔG of MTA subtracted
T1 sequence (Q13126 1-283): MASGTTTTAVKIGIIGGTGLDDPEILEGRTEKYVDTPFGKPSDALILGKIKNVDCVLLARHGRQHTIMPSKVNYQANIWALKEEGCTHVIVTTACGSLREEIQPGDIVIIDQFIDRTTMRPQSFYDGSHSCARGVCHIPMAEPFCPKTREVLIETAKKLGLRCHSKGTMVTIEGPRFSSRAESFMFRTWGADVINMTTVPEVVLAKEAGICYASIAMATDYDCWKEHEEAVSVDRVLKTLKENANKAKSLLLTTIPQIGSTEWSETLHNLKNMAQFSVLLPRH

MTAP:phosphate complex [2] = settings: read-out: dissociation constant (Kd); binding to MTAP:phosphate, ternary complex; ref [9],[10],[11]; cited from earlier work
human MTAP (apo) [3] = target: T1, human MTAP (apo); assay: Isothermal titration calorimetry of ligands binding to apo MTAP in Tris buffer; settings: for ΔHTris [n] / −TΔSTris: apo MTAP; for ΔHTris [n]: Tris buffer pH 7.4; for −TΔSTris: Tris; for ΔHcorrection share of total binding free energy: binding to apo MTAP; for ΔHcorrection / −TΔScorrection: without protonation/deprotonation effects
MTAP = settings: steady-state kinetic analysis; ref [7],[12]; cited from earlier work
human lung cancer = settings: immunodeficient mice; ref [4],[5]; cited from earlier work
MTAP:phosphate complex [4] = assay: Binding of TS analogues to the MTAP:phosphate complex; parameters: species or system human; settings: from 40 nM to 90 pM
[5] = system: human head and neck cancer; settings: immunodeficient mice; ref [4],[5]; cited from earlier work
[6] = apo MTAP, Hepes, all three sites or first-listed set of sites
[7] = all three sites or first two sites
[8] = all three sites [3] or first two sites [2]
[9] = apo MTAP, Hepes, second-listed set of sites

| NumberProton (protons released from the binding of ligand to MTAP) (human MTAP (apo) [3]; [7]) | ΔHTris - ΔHHepes (human MTAP (apo) [3]; [7]) | ΔHTris [n] (human MTAP (apo) [3]; [8]) | −TΔSTris (human MTAP (apo) [3]; [7]) | ΔHcorrection (human MTAP (apo) [3]; [7]) | −TΔScorrection (human MTAP (apo) [3]; [7]) | Compound | ΔG (human MTAP (apo) [1]; [6]) | ΔHHepes (human MTAP (apo) [1]; [6]) | −TΔSHepes (human MTAP (apo) [1]; [6]) | ΔΔG relative to MTA; contribution of the 9-deazaadenine (protonated N7) (human MTAP (apo) [1]) | Kd (MTAP:phosphate complex [2]) | ΔHcorrection share of total binding free energy (human MTAP (apo) [3]) | ΔG (human MTAP (apo) [1]; [9]) | ΔHHepes (human MTAP (apo) [1]; [9]) | −TΔSHepes (human MTAP (apo) [1]; [9]) | further results |
| --- | --- | --- | --- | --- | --- | --- | --- | --- | --- | --- | --- | --- | --- | --- | --- | --- |
|  |  |  |  |  |  | Nc1ncnc2c(CN3CC(CSc4ccc(Cl)cc4)[C@H](O)C3)c[nH]c12 (stereo partly shown) [pClPhT-DADMe-ImmA] |  |  |  |  | 0.01 nM |  |  |  |  |  |
|  |  |  |  |  |  | 5'-methylthioadenosine [MTA, reference compound] | -11.1 kcal/mol and -11.1 ± 0.4 kcal/mol | -1.0 ± 0.3 kcal/mol | -10.1 kcal/mol and -10.1 ± 0.5 kcal/mol |  |  |  | -8.4 ± 0.1 kcal/mol | -6.1 ± 0.2 kcal/mol | -2.3 ± 0.2 kcal/mol | Km (MTAP): 1.7 µM |
| −0.91 ± 0.05 | 5.9 ± 0.3 kcal/mol | −2.77 ± 0.04 [3] kcal/mol | -3.74 ± 0.07 kcal/mol | -13.1 kcal/mol and -13.1 ± 0.4 kcal/mol | 6.6 ± 0.4 kcal/mol | O=P(O)(O)O [phosphate, potassium phosphate] | -6.51 kcal/mol and -6.51 ± 0.06 kcal/mol | -8.7 ± 0.3 kcal/mol | 2.2 ± 0.3 kcal/mol |  |  |  |  |  |  | Kd (human MTAP (apo) [1]; apo MTAP, Hepes, all three sites): 17000 nM; protons absorbed from the buffer on binding to apo MTAP (human MTAP (apo) [3]; pH 7.4): 0.91 ± 0.05 |
| 0.2 and 0.2 ± 0.1 | -1.2 ± 0.8 kcal/mol | -11.4 ± 0.2 kcal/mol | 1.3 ± 0.3 kcal/mol | -9.2 kcal/mol and -9.2 ± 0.9 kcal/mol | -0.9 ± 0.9 kcal/mol | CSC[C@H]1CN(Cc2c[nH]c3c(N)ncnc23)C[C@@H]1O [MT-DADMe-ImmA] | -10.1 kcal/mol and -10.1 ± 0.2 kcal/mol | -10.2 ± 0.8 kcal/mol | 0.1 ± 0.8 kcal/mol | -1.7 kcal/mol | 0.09 nM | 91% | -9.5 ± 0.1 kcal/mol | -3 ± 1 kcal/mol | -7 ± 1 kcal/mol | effect on human lung cancer (human lung cancer): suppresses the growth and metastases of human lung cancer; decrease of Kd, apo MTAP to ternary complex with phosphate (MTAP:phosphate complex [4]): 440 fold; effect on human head and neck cancer [5]: causes remission of human head and neck cancer; ΔHTris [n] (human MTAP (apo) [3]; third site [1]): -10.3 ± 0.4 kcal/mol; −TΔSTris (human MTAP (apo) [3]; third site): 0.8 ± 0.4 kcal/mol; NumberProton (protons released from the binding of ligand to MTAP) (human MTAP (apo) [3]; third site): 1.1 and 1.1 ± 0.2; ΔHTris - ΔHHepes (human MTAP (apo) [3]; third site): -7 ± 1 kcal/mol; ΔHcorrection (human MTAP (apo) [3]; third site): 2 ± 1 kcal/mol; −TΔScorrection (human MTAP (apo) [3]; third site): -12 ± 1 kcal/mol |

| Compound | NumberProton (protons released from the binding of ligand to MTAP) (human MTAP (apo) [3]; [7]) | ΔHTris - ΔHHepes (human MTAP (apo) [3]; [7]) | ΔHTris [n] (human MTAP (apo) [3]; [8]) | −TΔSTris (human MTAP (apo) [3]; [7]) | ΔHcorrection (human MTAP (apo) [3]; [7]) | −TΔScorrection (human MTAP (apo) [3]; [7]) | ΔG (human MTAP (apo) [1]; [6]) | ΔHHepes (human MTAP (apo) [1]; [6]) | −TΔSHepes (human MTAP (apo) [1]; [6]) | ΔΔG relative to MTA; contribution of the 9-deazaadenine (protonated N7) (human MTAP (apo) [1]) | Kd (MTAP:phosphate complex [2]) | ΔHcorrection share of total binding free energy (human MTAP (apo) [3]) | ΔG (human MTAP (apo) [1]; [9]) | ΔHHepes (human MTAP (apo) [1]; [9]) | −TΔSHepes (human MTAP (apo) [1]; [9]) | further results |
| --- | --- | --- | --- | --- | --- | --- | --- | --- | --- | --- | --- | --- | --- | --- | --- | --- |
| CSCC1NC(c2c[nH]c3c(N)ncnc23)[C@@H](O)[C@H]1O (stereo partly shown) [MT-ImmA] | 0.5 and 0.50 ± 0.01 | -3.23 ± 0.09 kcal/mol | −12.82 ± 0.05 [3] kcal/mol | 3.1 ± 0.1 kcal/mol | -7.15 kcal/mol and -7.15 ± 0.09 kcal/mol | -2.6 ± 0.1 kcal/mol | -9.7 ± 0.1 kcal/mol | -9.59 ± 0.08 kcal/mol | -0.1 ± 0.1 kcal/mol | -1.3 kcal/mol | 1 nM | 74% |  |  |  |  |
